The source of these data is ChEMBL document CHEMBL1152024, “Synthesis and bronchospasmolytic properties of some pyridazinone derivatives” (1993).

For the first assay, the species on record is Cavia porcellus. Nature of the assay: Tested in vitro for its effect on tracheal relaxation in guinea pig trachea, activity expressed as percentage increase in the velocity of the flux of perfusion at concentration 30 ug/mL. The format is functional.
`Oc1nncc(N2CCN(CC(O)c3ccc(Cl)c(Cl)c3)CC2)c1Cl` (configuration not stated) had an Increase of 3%.
The same measure, in the same setting: the figure for `Nc1c(Cl)cc(C(O)CN2CCN(CCn3nc(Cl)ccc3=O)CC2)cc1Cl` (configuration not stated) is 22%; for `CC(=O)Nc1ccc(C(O)CN2CCN(CCn3nc(Cl)ccc3=O)CC2)cc1Cl` (configuration not stated) it is 4%.
`CC(=O)Nc1ccc(C(O)CN2CCN(c3cnnc(O)c3Cl)CC2)cc1Cl` (configuration not stated) had an Increase of 4%.
Same read-out and setting: then `O=c1ccc(Cl)nn1CCN1CCN(CC(O)c2ccc(Cl)c(Cl)c2)CC1` (configuration not stated), with 46%; and `Nc1c(Cl)cc(C(O)CN2CCN(c3ccc(O)nn3)CC2)cc1Cl` (configuration not stated), with 54%.
`Oc1ccc(N2CCN(CC(O)c3ccc(Cl)c(Cl)c3)CC2)nn1` (configuration not stated) came in with an Increase of 87%.
Turning to `Nc1c(Cl)cc(C(O)CN2CCN(c3cnnc(O)c3Cl)CC2)cc1Cl` (configuration not stated), the Increase is 19%.
`CC(=O)Nc1ccc(C(O)CN2CCN(c3ccc(O)nn3)CC2)cc1Cl` (configuration not stated) showed an Increase of 23%.

The species named for another assay is Cavia porcellus. Nature of the assay: Tested in vitro for its effect on tracheal relaxation in guinea pig trachea, activity expressed as percentage increase in the velocity of the flux of perfusion at concentration 10 ug/mL. The format is functional.
The molecule `Cn1c(=O)c2nc[nH]c2n(C)c1=O.O` [THEOPHYLLINE] came in with an Increase of 55%.

The species entered for another assay is Cavia porcellus. Nature of the assay: Tested in vitro for its effect on tracheal relaxation in guinea pig trachea, activity expressed as pD2 (-log of molar concentration which gives a half maximal relaxing effect). The assay is classed as functional.
In turn, `Cn1c(=O)c2nc[nH]c2n(C)c1=O.O` [THEOPHYLLINE] yielded a pD2 of 4.
As to `Oc1ccc(N2CCN(CC(O)c3ccc(Cl)c(Cl)c3)CC2)nn1` (configuration not stated), the pD2 is on record as 4.79.
